Holding throughout (assay): NCI-60 cell line screen, 48 h
The test system of test [1] is CCRF-CEM leukemia.
The subject of test [2] is COLO 205 colon.
In test [3] the test system is HCT-15 colon.
For test [4], the system named is HOP-62 NSCLC.
The subject of test [5] is HT29 colon.
Test [6] relates to IGROV1 ovarian.
Test [7] concerns KM12 colon.
Test [8] has as its system MALME-3M melanoma.
The subject of test [9] is NCI-H522 lung.
In test [10] the test system is OVCAR-3 ovarian.
The subject of test [11] is OVCAR-4 ovarian.
Test [12] concerns OVCAR-5 ovarian.
Test [13] concerns SF-268 CNS.
The test system of test [14] is SF-295 CNS.
Test [15] deals with SF-539 CNS.
The subject of test [16] is SK-OV-3 ovarian.
In test [17] the test system is SW-620 colon.
Test [18] relates to U251 CNS.
Test [19] has as its system UACC-62 melanoma.
In test [20] the test system is UO-31 renal.

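Dose response: 5 concentrations. Exposure: 48 h. Format: 96-well plates. Endpoint: linear interpolation; highest concentration if not reached. TGI: total growth inhibition.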

As for `O=c1cc2cc(O)[nH]c(=O)c2c(O)[nH]1`, the TGI in test [1], in [2], in test [3], in test [4], in test [5] and in test [6] was more than 100 µM throughout. Besides, the TGI in [7], in test [8], in test [9], in test [10], in [11] and in test [12] was more than 100 µM throughout. Moreover, the TGI in test [13], in test [14], in test [15], in test [16], in test [17] and in test [18] was more than 100 µM in each case. In addition, the TGI in test [19] and in test [20] was more than 100 µM each time.
In the case of `CC(C)(C)c1cc(C2NC(=O)NC2=O)cc(C(C)(C)C)c1O` (stereo not given), the TGI in test [1], in test [2], in [3], in [4], in [5] and in [6] was more than 100 µM in each case. For the same molecule, the TGI is 48.4 µM in test [7]; more than 100 µM in test [8]; more than 100 µM in test [9]; more than 100 µM in test [10]; more than 100 µM in test [11]; more than 100 µM in test [12]. In addition, the TGI in [13], in test [14], in [15], in test [16], in test [17] and in test [18] was more than 100 µM in each case. The TGI in test [19] and in test [20] was more than 100 µM each time.
Take `COc1cc(-c2coc3c(OC)c(OC4OC(COC5OC(C)C(O)C(O)C5O)C(O)C(O)C4O)c(OC)c(O)c3c2=O)cc(C)c1O` (stereo not given): the TGI is more than 100 µM in test [1]; 34.9 µM in test [2]; 40.9 µM in test [3]; 81.9 µM in test [4]; 43.5 µM in test [5]; 53.1 µM in test [6]. The TGI turned out to be 29.3 µM in test [7]; 33.9 µM in test [8]; 34.7 µM in test [9]; 47.2 µM in test [10]; 69.5 µM in test [11]; 45.5 µM in test [12]. Moreover, the TGI worked out at 62.2 µM in [13]; 38 µM in test [14]; 39 µM in test [15]; 60.3 µM in [16]; 30.9 µM in [17]; 32.9 µM in test [18]. The TGI in test [19] turned out to be 34.7 µM; in test [20] it was 50.5 µM.
For `Cc1[nH]c(=O)[nH]c(=O)c1C(=O)N(CCO)Cc1ccccc1`, the TGI in [1] is more than 100 µM; in test [2], 45.7 µM; in test [3], more than 100 µM; in [4], more than 100 µM; in test [5] it was more than 100 µM; in test [6], more than 100 µM. The TGI was more than 100 µM in [7]; more than 100 µM in test [8]; more than 100 µM in [9]; more than 100 µM in [10]; 99.7 µM in test [11]; more than 100 µM in [12]. The TGI in test [13], in test [14], in test [15], in [16], in test [17] and in test [18] was more than 100 µM each time. For the same molecule, the TGI in [19] and in test [20] was more than 100 µM in each case.
Regarding `CCCN1C(=O)/C(=C(/O)C(=O)OCC)C(c2ccc(OC)c(OC)c2)C1=O` (stereo not given), the TGI in test [1], in [2], in test [3], in test [4], in test [5] and in [6] was more than 100 µM throughout. Also, the TGI in [7] was more than 100 µM; in [8], more than 100 µM; in test [9], more than 100 µM; in test [10], more than 66.1 µM; in [11] it was more than 100 µM; in [12] it was more than 100 µM. Further, the TGI in [13], in test [14], in test [15], in [16], in [17] and in test [18] was more than 100 µM in each case. For the same molecule, the TGI in test [19] and in test [20] was more than 100 µM in each case.
On to `CC(=O)OC1C(O)C(C)OC(OC(=O)C2CCC3C(C2)OC2(CC(OC(=O)/C=C/c4ccccc4)C(C)CO2)C32CO2)C1OC1OC(C)C(O)C(O)C1O` (stereo not given), for which the TGI is 1.26 µM in test [1]; 0.0569 µM in test [2]; 39.2 µM in test [3]; 0.223 µM in test [4]; 0.576 µM in [5]; 0.131 µM in [6]. In addition, the TGI in test [7] was found to be 0.144 µM; in test [8], 0.093 µM; in test [9], 0.0487 µM; in test [10] it was 0.0917 µM; in test [11], 0.0706 µM; in test [12], 1.24 µM. The TGI in test [13] was 0.15 µM; in [14], 0.542 µM; in [15], 0.105 µM; in test [16], 0.213 µM; in test [17] it was 0.568 µM; in test [18], 0.12 µM. In addition, the figures for the TGI in [19] and in [20] were 0.114 µM and 33.2 µM, respectively.

The values above are taken from PubChem BioAssay (NCI).
